Read-outs that look alike come from different tables or passages of the source.
Legend:
human NPR1 = target: T1, human NPR1 (Homo sapiens, UniProt P16066); assay: Cellular cGMP production assay, human NPR1 expressing CHO-K1 cells (CisBio HTRF); format: cell-based; details: for AC50: cGMP production, 30 min at 37° C., 12-point dose-response from 30 μM; for Human NPR1 Amax (% of ANP): maximum cGMP production as percentage of the maximum cGMP produced with ANP
T1 construct: host or cells: CHO-K1
T1 sequence (P16066 33-1061): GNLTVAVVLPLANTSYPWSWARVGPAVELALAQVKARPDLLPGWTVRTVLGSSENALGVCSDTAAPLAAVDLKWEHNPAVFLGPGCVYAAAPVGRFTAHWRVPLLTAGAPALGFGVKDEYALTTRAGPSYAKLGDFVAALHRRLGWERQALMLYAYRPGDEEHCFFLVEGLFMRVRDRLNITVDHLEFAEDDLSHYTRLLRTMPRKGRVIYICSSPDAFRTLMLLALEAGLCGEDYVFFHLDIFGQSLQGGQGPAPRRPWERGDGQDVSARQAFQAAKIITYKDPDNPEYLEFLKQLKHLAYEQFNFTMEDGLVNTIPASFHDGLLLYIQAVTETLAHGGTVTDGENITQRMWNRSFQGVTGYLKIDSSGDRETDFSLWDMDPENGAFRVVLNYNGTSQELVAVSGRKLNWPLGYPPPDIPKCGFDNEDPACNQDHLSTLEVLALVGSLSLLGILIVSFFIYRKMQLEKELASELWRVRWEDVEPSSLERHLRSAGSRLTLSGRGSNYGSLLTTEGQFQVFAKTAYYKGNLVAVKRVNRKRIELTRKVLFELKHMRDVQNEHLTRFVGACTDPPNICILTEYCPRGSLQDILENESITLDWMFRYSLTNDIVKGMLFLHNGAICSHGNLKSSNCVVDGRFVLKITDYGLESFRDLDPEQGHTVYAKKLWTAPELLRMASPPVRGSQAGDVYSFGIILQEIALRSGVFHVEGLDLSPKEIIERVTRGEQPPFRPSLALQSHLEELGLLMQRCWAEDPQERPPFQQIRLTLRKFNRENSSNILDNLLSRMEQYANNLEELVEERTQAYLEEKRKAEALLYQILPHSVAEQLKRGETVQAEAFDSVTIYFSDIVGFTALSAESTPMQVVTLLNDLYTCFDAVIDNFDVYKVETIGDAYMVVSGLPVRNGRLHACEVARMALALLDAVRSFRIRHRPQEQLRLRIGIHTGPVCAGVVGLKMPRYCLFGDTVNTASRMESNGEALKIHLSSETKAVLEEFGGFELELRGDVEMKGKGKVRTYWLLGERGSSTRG
Summary of the method: (§1)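 Cells receive IBMX (1 mM) assay buffer plus test compound over twelve threefold dilutions starting at 30 μM, and cGMP accumulates for 30 min at 37 °C. Lysates are then incubated one hour at room temperature with d2-labelled cGMP and cryptate-labelled antibody before time-resolved fluorescence reading.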

monkey NPR1 = monkey NPR1 (Macaca fascicularis, UniProt A0A7N9DBT9); assay: Cellular cGMP production assay, monkey NPR1 expressing CHO-K1 cells (CisBio HTRF); format: cell-based; details: for Monkey NPR1 Amax (% of ANP): maximum cGMP production as percentage of the maximum cGMP produced with ANP
Summary of the method: as §1

[1] = cGMP production, monkey NPR1 CHO-K1 cells, 30 min at 37° C., 12-point dose-response from 30 μM, read-out: Monkey NPR1 AC50

monkey NPR1, sequence (A0A7N9DBT9 entry or part of it): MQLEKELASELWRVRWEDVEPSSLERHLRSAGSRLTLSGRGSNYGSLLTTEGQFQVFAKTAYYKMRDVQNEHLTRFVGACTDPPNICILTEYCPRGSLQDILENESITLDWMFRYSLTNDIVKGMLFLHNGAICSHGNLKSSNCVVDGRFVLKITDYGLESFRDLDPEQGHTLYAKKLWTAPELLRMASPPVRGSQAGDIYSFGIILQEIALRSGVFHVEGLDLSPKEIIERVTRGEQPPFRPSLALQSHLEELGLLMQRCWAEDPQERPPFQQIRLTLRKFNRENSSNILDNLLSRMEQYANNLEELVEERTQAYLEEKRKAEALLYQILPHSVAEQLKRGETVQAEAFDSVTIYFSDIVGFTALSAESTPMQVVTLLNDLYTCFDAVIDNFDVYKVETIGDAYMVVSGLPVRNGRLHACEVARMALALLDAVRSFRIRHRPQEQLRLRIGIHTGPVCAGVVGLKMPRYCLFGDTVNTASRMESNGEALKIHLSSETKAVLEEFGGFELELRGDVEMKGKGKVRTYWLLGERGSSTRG

Row | Compound | AC50 (human NPR1) [nM] | Human NPR1 Amax (% of ANP) (human NPR1) | AC50 (monkey NPR1) [nM] | Monkey NPR1 Amax (% of ANP) (monkey NPR1; monkey NPR1 CHO-K1 cells) | AC50 (monkey NPR1; [1]) [nM]
1 | CC[C@H]([C@H]1CC[C@H](C(=O)O)CC1)N(C)c1nc2c(c(N[C@@H](CN3CCC[C@H](C)C3)c3cnn(C)c3)n1)CN(C1CCCCC1)CC2 [Compound 152, (1R,4r)-4-((R)-1-((6-cyclohexyl-4-(((R)-1-(1-methyl-1H-pyrazol-4-yl)-2-((S)-3-methylpiperidin-1-yl)ethyl)amino)-5,6,7,8-tetrahydropyrido[4,3-d]pyrimidin-2-yl)(methyl)amino)propyl)cyclohexane-1-carboxylic acid] | 1190 | 104.537 % of ANP | 600 | 106.260 % of ANP | 
2 | CC[C@H]([C@H]1CC[C@H](C(=O)O)CC1)N(C)c1nc2c(c(N[C@@H](CN3CCC[C@H](C)C3)c3ccnn3C)n1)C[C@H](c1cccc(F)c1)CC2 [Compound 161, (1R,4r)-4-((R)-1-(((R)-6-(3-fluorophenyl)-4-(((S)-1-(1-methyl-1H-pyrazol-5-yl)-2-((S)-3-methylpiperidin-1-yl)ethyl)amino)-5,6,7,8-tetrahydroquinazolin-2-yl)(methyl)amino)propyl)cyclohexane-1-carboxylic acid] | 1680 | 108.479 % of ANP |  | 97.242 % of ANP | 989
3 | CC[C@@H](Nc1nc2c(c(N[C@@H](CN3C4CCCC3CC4)c3sc(C)nc3C)n1)C[C@H](c1cccc(F)c1)CC2)[C@H]1CC[C@H](C(=O)O)CC1 [Compound 24, (1R,4r)-4-((1R)-1-(((6R)-4-(((1S)-2-(8-azabicyclo[3.2.1]octan-8-yl)-1-(2,4-dimethylthiazol-5-yl)ethyl)amino)-6-(3-fluorophenyl)-5,6,7,8-tetrahydroquinazolin-2-yl)amino)propyl)cyclohexane-1-carboxylic acid] | 125 | 112.884 % of ANP | 102 | 128.837 % of ANP | 
4 | C[C@@H](Nc1nc2c(c(N[C@@H](CN3C4CCCC3CCC4)c3cnn(C)c3)n1)C[C@H](c1ccccc1)CC2)c1ccc(C(=O)O)c(F)c1 [Compound 168, 4-((R)-1-(((R)-4-(((R)-2-((1S,5S)-9-azabicyclo[3.3.1]nonan-9-yl)-1-(1-methyl-1H-pyrazol-4-yl)ethyl)amino)-6-phenyl-5,6,7,8-tetrahydroquinazolin-2-yl)amino)ethyl)-2-fluorobenzoic acid] | 2230 | 96.777 % of ANP | 1540 | 93.654 % of ANP | 
5 | CC[C@H]([C@H]1CC[C@H](C(=O)O)CC1)N(C)c1nc2c(c(N[C@@H](CN3CCC[C@H](C)C3)c3cnn(C)c3)n1)C[C@H](c1ccccc1F)CC2 [Compound 48, (1R,4r)-4-((R)-1-(((R)-6-(2-fluorophenyl)-4-(((R)-1-(1-methyl-1H-pyrazol-4-yl)-2-((S)-3-methylpiperidin-1-yl)ethyl)amino)-5,6,7,8-tetrahydroquinazolin-2-yl)(methyl)amino)propyl)cyclohexane-1-carboxylic acid] | 183 | 106.036 % of ANP |  | 101.062 % of ANP | 101
6 | CC[C@H]([C@H]1CC[C@H](C(=O)O)CC1)N(C)c1nc2c(c(N[C@@H](CN3CCCCC3)c3cnn(C)c3)n1)C[C@](C)(c1ccccc1)CC2 [Compound 66, (1R,4r)-4-((R)-1-(methyl((R)-6-methyl-4-(((R)-1-(1-methyl-1H-pyrazol-4-yl)-2-(piperidin-1-yl)ethyl)amino)-6-phenyl-5,6,7,8-tetrahydroquinazolin-2-yl)amino)propyl)cyclohexane-1-carboxylic acid] | 219 | 96.868 % of ANP |  | 98.088 % of ANP | 123
7 | CC[C@@H](Nc1nc2c(c(N[C@@H](CN3CCC[C@@H](C)C3)c3cnn(C)c3)n1)C[C@H](c1ccccc1)CC2)[C@H]1CC[C@H](C(=O)O)CC1 [Compound 84, (1R,4r)-4-((R)-1-(((R)-4-(((R)-1-(1-methyl-1H-pyrazol-4-yl)-2-((R)-3-methylpiperidin-1-yl)ethyl)amino)-6-phenyl-5,6,7,8-tetrahydroquinazolin-2-yl)amino)propyl)cyclohexane-1-carboxylic acid] | 284 | 100.223 % of ANP |  | 102.883 % of ANP | 191
8 | CC[C@H]([C@H]1CC[C@H](C(=O)O)CC1)N(C)c1nc2c(c(N[C@@H](CN3C4CCCC3CC4)c3cnn(C)c3)n1)C[C@H](c1ccc(F)cc1)CC2 [Compound 31, (1R,4r)-4-((1R)-1-(((6R)-4-(((1R)-2-(8-azabicyclo[3.2.1]octan-8-yl)-1-(1-methyl-1H-pyrazol-4-yl)ethyl)amino)-6-(4-fluorophenyl)-5,6,7,8-tetrahydroquinazolin-2-yl)(methyl)amino)propyl)cyclohexane-1-carboxylic acid] | 144 | 92.978 % of ANP | 89 | 100.914 % of ANP | 
9 | CC[C@@H](Nc1nc2c(c(N[C@@H](CN3C4CCCC3CCC4)c3cnn(C)c3)n1)C[C@H](c1cccc(F)c1)CC2)[C@H]1CC[C@H](C(=O)O)CC1 [Compound 15, (1R,4r)-4-((R)-1-(((R)-4-(((R)-2-((1S,5S)-9-azabicyclo[3.3.1]nonan-9-yl)-1-(1-methyl-1H-pyrazol-4-yl)ethyl)amino)-6-(3-fluorophenyl)-5,6,7,8-tetrahydroquinazolin-2-yl)amino)propyl)cyclohexane-1-carboxylic acid] | 102 | 106.001 % of ANP | 92 | 109.175 % of ANP | 
10 | CC[C@@H](N(C)c1nc2c(c(N[C@@H](CN3CCCCCC3)c3cnn(C)c3)n1)C[C@H](c1cccc(F)c1)CC2)C12CC(C(=O)O)(C1)C2 [Compound 1, 3-((R)-1-(((R)-4-(((R)-2-(azepan-1-yl)-1-(1-methyl-1H-pyrazol-4-yl)ethyl)amino)-6-(3-fluorophenyl)-5,6,7,8-tetrahydroquinazolin-2-yl)(methyl)amino)propyl)bicyclo[1.1.1]pentane-1-carboxylic acid] | 14 | 93.788 % of ANP |  | 97.462 % of ANP | 10
11 | O=C(O)[C@H]1CC[C@H](C(CC2CC2)Nc2nc3c(c(N[C@@H](CN4CCCC4)c4ccccc4)n2)CC(c2ccccc2)CC3)CC1 (stereo partly drawn) [Compound 139, (1R,4r)-4-((1R)-2-cyclopropyl-1-((6-phenyl-4-(((R)-1-phenyl-2-(pyrrolidin-1-yl)ethyl)amino)-5,6,7,8-tetrahydroquinazolin-2-yl)amino)ethyl)cyclohexane-1-carboxylic acid] | 876 | 105.089 % of ANP |  | 111.911 % of ANP | 696
12 | CC[C@@H](Nc1nc2c(c(N[C@@H](CN3C4CCCC3CC(O)C4)c3cnn(CC)c3)n1)C[C@H](c1cccc(F)c1)CC2)[C@H]1CC[C@H](C(=O)O)CC1 (stereo partly drawn) [Compound 117, (1R,4r)-4-((1R)-1-(((6R)-4-(((1R)-1-(1-ethyl-1H-pyrazol-4-yl)-2-((1R,5S)-3-hydroxy-9-azabicyclo[3.3.1]nonan-9-yl)ethyl)amino)-6-(3-fluorophenyl)-5,6,7,8-tetrahydroquinazolin-2-yl)amino)propyl)cyclohexane-1-carboxylic acid] | 524 | 100.635 % of ANP | 500 | 109.499 % of ANP | 
13 | CC[C@H]([C@H]1CC[C@H](C(=O)O)CC1)N(C)c1nc2c(c(N[C@@H](CN3CCC[C@H](C)C3)c3cnn(C)c3)n1)C[C@](C)(c1ccccc1)CC2 [Compound 7, (1R,4r)-4-((R)-1-(methyl((R)-6-methyl-4-(((R)-1-(1-methyl-1H-pyrazol-4-yl)-2-((S)-3-methylpiperidin-1-yl)ethyl)amino)-6-phenyl-5,6,7,8-tetrahydroquinazolin-2-yl)amino)propyl)cyclohexane-1-carboxylic acid] | 80 | 97.105 % of ANP |  | 102.341 % of ANP | 50

From patent US12129246B1, “Hydroquinazoline derivatives for the treatment of a disease or disorder” (Novartis AG, priority 2023, dated 2024)
